Experimental data: the supplement of paper PMC11061612

Tests used:
EW-3 (Ewing's Sarcoma) [1] = experiment: combination Emax (second highest fraction inhibited in the dose matrix, 72 h); higher = more inhibition; extreme values may be limits of the assay
In short: (§1)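 Cell lines grown in DMEM/F12 or RPMI with 10% FBS were plated in 1536-well plates and held 24 hours at 37°C, 5% CO2 before 72 hours of exposure to two-drug dose matrices, with DMSO typically at 0.2%. CellTiter-Glo 2.0 luminescence gave viability, which was converted to inhibition. Vehicle wells were set to 0 and blank wells to 1. Combination Emax is the second-highest inhibition in the matrix, and Bliss excess is the observed combination effect minus the expected EA + EB − EA·EB, where EA and EB are the single-agent effects.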

[2] = test system: TGBC11TKB (Gastric Carcinoma); experiment: as above
In short: as §1

[3] = test system: JHH-7 (Hepatocellular Carcinoma); experiment: as above
In short: as §1

[4] = test system: HSC-2 (Oral Cavity Carcinoma); experiment: as above
In short: as §1

[5] = test system: SCC-9 (Oral Cavity Carcinoma); experiment: as above
In short: as §1

[6] = test system: KINGS-1 (Low Grade Glioma); experiment: as above
In short: as §1

[7] = test system: OCUM-1 (Gastric Carcinoma); experiment: as above
In short: as §1

NB7 (Neuroblastoma) [8] = experiment: as above
In short: as §1

GI-1 (Glioblastoma) [9] = experiment: as above
In short: as §1

[10] = test system: VMRC-LCD (Lung Adenocarcinoma); experiment: as above
In short: as §1

[11] = test system: NCI-N87 (Gastric Carcinoma); experiment: as above
In short: as §1

[12] = test system: H-EMC-SS (Chondrosarcoma); experiment: as above
In short: as §1

[13] = test system: LC4-1 (B-Lymphoblastic Leukemia); experiment: as above
In short: as §1

[14] = test system: SNU-C1 (Colorectal Carcinoma); experiment: as above
In short: as §1

[15] = test system: OCUB-M (Breast Carcinoma); experiment: as above
In short: as §1

EW-3 (Ewing's Sarcoma) [16] = experiment: Bliss excess, mean over the matrix (fraction); higher = more synergy
In short: as §1

[17] = test system: TGBC11TKB (Gastric Carcinoma); experiment: as above
In short: as §1

[18] = test system: JHH-7 (Hepatocellular Carcinoma); experiment: as above
In short: as §1

[19] = test system: HSC-2 (Oral Cavity Carcinoma); experiment: as above
In short: as §1

[20] = test system: SCC-9 (Oral Cavity Carcinoma); experiment: as above
In short: as §1

[21] = test system: KINGS-1 (Low Grade Glioma); experiment: as above
In short: as §1

[22] = test system: OCUM-1 (Gastric Carcinoma); experiment: as above
In short: as §1

NB7 (Neuroblastoma) [23] = experiment: as above
In short: as §1

GI-1 (Glioblastoma) [24] = experiment: as above
In short: as §1

[25] = test system: VMRC-LCD (Lung Adenocarcinoma); experiment: as above
In short: as §1

[26] = test system: NCI-N87 (Gastric Carcinoma); experiment: as above
In short: as §1

[27] = test system: H-EMC-SS (Chondrosarcoma); experiment: as above
In short: as §1

[28] = test system: LC4-1 (B-Lymphoblastic Leukemia); experiment: as above
In short: as §1

[29] = test system: SNU-C1 (Colorectal Carcinoma); experiment: as above
In short: as §1

[30] = test system: OCUB-M (Breast Carcinoma); experiment: as above
In short: as §1
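Throughout, for Bliss excess, mean over the matrix: after 72 h of two-drug dosing.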

| Compound | combination Emax (EW-3 (Ewing's Sarcoma) [1]) | combination Emax [2] | combination Emax [3] | combination Emax [4] | combination Emax [5] | combination Emax [6] | combination Emax [7] | combination Emax (NB7 (Neuroblastoma) [8]) | combination Emax (GI-1 (Glioblastoma) [9]) | combination Emax [10] | combination Emax [11] | combination Emax [12] | combination Emax [13] | combination Emax [14] | combination Emax [15] | Bliss excess (EW-3 (Ewing's Sarcoma) [16]) | Bliss excess [17] | Bliss excess [18] | Bliss excess [19] | Bliss excess [20] | Bliss excess [21] | Bliss excess [22] | Bliss excess (NB7 (Neuroblastoma) [23]) | Bliss excess (GI-1 (Glioblastoma) [24]) | Bliss excess [25] | Bliss excess [26] | Bliss excess [27] | Bliss excess [28] | Bliss excess [29] | Bliss excess [30] |
| --- | --- | --- | --- | --- | --- | --- | --- | --- | --- | --- | --- | --- | --- | --- | --- | --- | --- | --- | --- | --- | --- | --- | --- | --- | --- | --- | --- | --- | --- | --- |
| N#Cc1cnc(Nc2cc(NC[C@H]3CNCCO3)c(C(F)(F)F)cn2)cn1 [SRA737] + Nc1ccn([C@@H]2O[C@H](CO)[C@@H](O)C2(F)F)c(=O)n1 [Gemcitabine] (first compound max 10 µM, 7x7, partner max 0.3 µM) | 0.902 | 0.942 | 0.569 | 0.959 | 0.401 | 0.29 | 0.709 | 0.765 | 0.916 | 0.773 | 0.702 | 0.542 | 0.976 | 0.712 | 0.951 | -0.0521 | 0.0075 | 0.0691 | 0.059 | 0.0211 | -0.0208 | -0.022 | 0.0519 | 0.0455 | 0.0934 | -0.0415 | -0.0056 | 0.113 | -0.0175 | 0.0085 |
| Cc1c2c(nn1C)CSCc1cc(n(C)n1)CSc1cc(c3ccccc3c1)OCCCc1c(C(=O)O)n(C)c3c-2c(Cl)ccc13 [AZD5991] + Nc1ccn([C@@H]2O[C@H](CO)[C@@H](O)C2(F)F)c(=O)n1 [Gemcitabine] (first compound max 1 µM, 7x7, partner max 0.3 µM) | 0.935 | 0.929 | 0.314 | 0.992 | 0.237 | 0.195 | 0.656 | 0.844 | 0.86 | 0.539 | 0.61 | 0.594 | 0.975 | 0.449 | 1 | 0.0096 | -0.0006 | -0.0114 | 0.0273 | -0.0216 | -0.0719 | -0.0565 | 0.0093 | -0.0002 | 0.0333 | -0.0095 | -0.005 | 0.0158 | 0.0119 | 0.0283 |
| CS(=O)(=O)CCNCc1ccc(-c2ccc3ncnc(Nc4ccc(OCc5cccc(F)c5)c(Cl)c4)c3c2)o1 [Lapatinib] + Cn1cnc2c(F)c(Nc3ccc(Br)cc3Cl)c(C(=O)NOCCO)cc21 [Selumetinib] (first compound max 10 µM, 7x7, partner max 10 µM) | 0.405 | 0.527 | 0.344 | 0.782 | 0.988 | 0.337 | 0.95 | 0.119 | 0.368 | 0.207 | 0.991 | 0.317 | 0.954 | 0.785 | 0.551 | -0.0017 | 0.106 | -0.0408 | -0.0044 | 0.0063 | -0.0191 | -0.0148 | -0.0408 | 0.0054 | -0.0369 | 0.0451 | -0.0086 | 0.0675 | -0.0196 | -0.0507 |
| C[C@@H](Nc1cc(F)cc(F)c1)c1cc(C(=O)N(C)C)cc2c(=O)cc(N3CCOCC3)oc12 [AZD8186] + C1CN(CCC1(C(=O)N[C@@H](CCO)C2=CC=C(C=C2)Cl)N)C3=NC=NC4=C3C=CN4 [AZD5363] (first compound max 10 µM, 7x7, partner max 10 µM) | 0.239 | 0.126 | 0.25 | 0.667 | 0.351 | 0.422 | 0.513 | 0.864 | 0.751 | 0.0947 | 0.629 | 0.448 | 0.398 | 0.586 | 1 | 0.0017 | -0.0235 | -0.0665 | -0.0041 | -0.0225 | -0.0307 | -0.0101 | -0.0059 | 0.0399 | -0.025 | 0.0125 | -0.0314 | 0.027 | -0.0605 | 0.019 |
| C[C@@H]1COCCN1c1cc(C2([S@](C)(=N)=O)CC2)nc(-c2ccnc3[nH]ccc23)n1 [AZD6738] + C1CC(C1)(C(=O)[O-])C(=O)[O-].N.N.[Pt+2] [Carboplatin] (first compound max 10 µM, 7x7, partner max 10 µM) | 0.77 | 0.653 | 0.292 | 0.598 | 0.293 | 0.187 | 0.647 | 0.508 | 0.843 | 0.697 | 0.71 | 0.344 | 0.896 | 0.408 | 0.417 | 0.0061 | -0.0618 | -0.0368 | 0.0029 | -0.0334 | -0.0713 | -0.0496 | -0.0115 | 0.0044 | -0.0159 | -0.0332 | -0.0251 | -0.0504 | -0.0744 | -0.0165 |
